From publication PMC8072890, “Aminoalkylamides of Eremomycin Exhibit an Improved Antibacterial Activity” (Pharmaceuticals, 2021)
≈ marks a conversion by molar mass, not a printed value. Read-outs that look alike come from different tables or passages of the source. Marks after values point to notes of the source that are not given here.

What was measured:
E. faecalis 559 = format: cell-based; settings: sensitive strain; broth dilution micromethod, CLSI; modal values (or range) of 3–5 independent tests
Text: (§1) The antimicrobial activity of semisynthetic derivatives of eremomycin 4a–q was studied in comparison with vancomycin on a wide panel of Gram-positive bacteria sensitive (Staphylococcus aureus ATCC 29213, S. aureus R-2, S. haemoliticus 602, S. pneumoniae ATCC 6305, Enteroccus faecium 4, and E. faecalis 559) and resistant to vancomycin (S. aureus 3797, S.aureus 3798, E. faecium 2, E. faecium 3576, E. faecalis 9, E. faecalis 583, and E. gallinarum BΠ 4147), information about the strains given in Table S3. The minimum microbial inhibitory concentration (MIC) for the test compounds was determined by the broth dilution micromethod according to CLSI guidelines, and vancomycin and a standard strain S. aureus ATCC 29213 used as controls (Figure 2 and Tables S4 and S5).
(§2) Table S4. Antibacterial activity of vancomycin and derivatives 4a–q against sensitive Gram-positive bacteria.
(§3) Strain/MIC (Minimum inhibitory concentration, μg/ml)*
(§4) Compound m n R S.aureus АТСС S.aureus R-2 S.haemoliticus S.pneumoniae АТСС E. faecium 4 E. faecalis 559
(§5) *MICs are presented as modal values for 3–5 independently replicated MIC tests for each strain and for the antibiotics. In the range of the
(§6) obtained MIC values, the obtained modal values are highlighted in bold.

E. faecium 4 = format: cell-based; settings: sensitive strain; broth dilution micromethod, CLSI; modal values (or range) of 3–5 independent tests
Text: as §1, §2, §3, §4, §5, §6

S. aureus R-2 = format: cell-based; settings: sensitive strain; broth dilution micromethod, CLSI; modal values (or range) of 3–5 independent tests
Text: as §1, §2, §3, §4, §5, §6

S. haemoliticus 602 = format: cell-based; settings: sensitive strain; broth dilution micromethod, CLSI; modal values (or range) of 3–5 independent tests
Text: as §1, §2, §3, §4, §5, §6

[1] = tested on: Staphylococcus aureus ATCC 29213; format: cell-based; settings: vancomycin-sensitive control strain; broth dilution micromethod, CLSI; modal values (or range) of 3–5 independent tests
Text: as §1, §2, §3, §4, §5, §6

S. pneumoniae ATCC 6305 = experiment: MIC, broth dilution micromethod (CLSI); format: cell-based; settings: sensitive strain, modal values (or range) of 3–5 independent tests
Text: as §1, §2, §3, §4, §5, §6

E. faecalis 583 = format: cell-based; settings: strain resistant to vancomycin; broth dilution micromethod, CLSI; modal values (or range) of 3–5 independent tests
Text: as §1
(§7) Table S5. Antibacterial activity of vancomycin and derivatives 4a–q against resistant Gram-positive bacteria.
(§8) Strain/MIC (minimum inhibitory concentration; μg/ml)
(§9) Compound m n R S.aureus 3797 S.aureus 3798 E. faecium 2 E. faecium 3576 E. faecalis 9 E. faecalis 583 E. gallinarum
(§10) *MICs are presented as modal values for 3–5 independently replicate MIC tests for each strain and for the antibiotics. In the range of the obtained MIC
(§11) values, the obtained modal values are highlighted in bold.

E. faecalis 9 = format: cell-based; settings: strain resistant to vancomycin; broth dilution micromethod, CLSI; modal values (or range) of 3–5 independent tests
Text: as §1, §7, §8, §9, §10, §11

E. faecium 2 = format: cell-based; settings: strain resistant to vancomycin; broth dilution micromethod, CLSI; modal values (or range) of 3–5 independent tests
Text: as §1, §7, §8, §9, §10, §11

E. faecium 3576 = format: cell-based; settings: strain resistant to vancomycin; broth dilution micromethod, CLSI; modal values (or range) of 3–5 independent tests
Text: as §1, §7, §8, §9, §10, §11

E. gallinarum BΠ 4147 = format: cell-based; settings: strain resistant to vancomycin; broth dilution micromethod, CLSI; modal values (or range) of 3–5 independent tests
Text: as §1, §7, §8, §9, §10, §11

S. aureus 3797 = format: cell-based; settings: strain resistant to vancomycin; broth dilution micromethod, CLSI; modal values (or range) of 3–5 independent tests
Text: as §1, §7, §8, §9, §10, §11

S.aureus 3798 = format: cell-based; settings: strain resistant to vancomycin; broth dilution micromethod, CLSI; modal values (or range) of 3–5 independent tests
Text: as §1, §7, §8, §9, §10, §11

[2] = tested on: S. aureus (strain 10, clinical isolate); experiment: Mouse staphylococcal sepsis model, single IV administration; format: in vivo, mice (SHK colony); settings: for Survival: 30 min after infection, n = 10; for ED50: mice infected IV with lethal dose of S. aureus (8 × 10^8 CFU/mouse), single IV dose 30 min after infection, n = 10 per group, observed 14 days, Behrens method
Procedure: A comparative study of the efficacy of eremomycin N-(2-((2-fluorobenzyl)amino)ethyl)amide (4e) and vancomycin was carried out in a mice staphylococcal sepsis model. Healthy female mice of the SHK colony weighing 20–22 g after two-week quarantine were randomized into groups (n = 10) and received S. aureus as the infectious agent (strain 10, clinical isolate, adapted for growth in vivo by five-fold passaging in mice). In the experiment, female mice of the SHK colony weighing 20–22 g were used. S. aureus (strain 10, clinical isolate), adapted for growth in vivo by five-fold passaging in mice, was used as the infectious agent. Initially, the lethal dose (LD100) of staphylococcus was determined for this mouse line using the intravenous infection route. The mice deaths were counted daily for 10 days. Thus, the lethal dose (LD100) was defined as 8 × 10^8 CFU/mouse. Afterwards, the mice were seated in cages of 10 heads and were infected intravenously with S. aureus at a lethal dose, and the efficacy of the tested drugs was determined by the ED50 value (i.e., the dose at which 50% of the experimental animals survive). Then, 30 min after infection, the mice were injected intravenously with eremomycin N-(2-((2-fluorobenzyl)amino)ethyl)amide (4e) at single doses from 0.1 to 2.5 mg/kg. or vancomycin at doses from 2.5 to 7.5 mg/kg. As a control dose, a group of untreated animals infected with a lethal dose of S. aureus was present in the experiment. The determination of ED50 of the tested compounds was carried out in one experiment under a single control using the Behrens method.

[3] = Acute toxicity, single IV injection in mice; format: in vivo, F1 (CBAxC57Bl) mice; settings: for therapeutic index (TI = LD50/ED50): laboratory animals (mice), IV, LD50 acute toxicity / ED50 staphylococcal sepsis
Procedure: The F1 (CBAxC57Bl) mice (18–20 g) were randomized into groups (n = 6) and received eremomycin N-(2-((2-fluorobenzyl)amino)ethyl)amide 4e through single intravenous injections. The intact animals were used as the control. The substance was dissolved in a 5% glucose solution and was administrated in dosage ranges of 130–200 mg/kg into the tail veins of the mice. The concentration of 4e in the injected solution was 5 mg/mL.
The acute toxicity was estimated by the mortality and survival time, as well as by the body weight gain/loss, food consumption, and clinical symptoms of intoxication, including behavioral reactions. […] The LD50 values and the maximum tolerated doses (MTD = LD10) were calculated using the method of Litchfield and Wilcoxon using the StatPlus Professional 3.8.0 software.

[4] = mice, IV administration; previous investigation; cited from earlier work
Procedure: For the characterization of the therapeutic potential of the lead compound 4e, an acute toxicity test for an IV single-dose administration was also carried out (Table 2). […] The drug administration in doses of 130–190 mg/kg led to the death of some animals from 2 to 15 min after injections as a result of cardiac and respiratory arrest against the background of neurotoxicity. […] The quantitative parameters of acute toxicity (LD50 and MTD (LD10) values ...

[5] = mouse staphylococcal sepsis model, single IV

Compound | MIC E. faecalis 559 (E. faecalis 559) [µg/mL] | MIC E. faecium 4 (E. faecium 4) [µg/mL] | MIC S.aureus R-2 (S. aureus R-2) [µg/mL] | MIC S.haemoliticus 602 (S. haemoliticus 602) [µg/mL] | MIC S.aureus ATCC 29213 [1] [µg/mL] | MIC S.pneumoniae ATCC 6305 (S. pneumoniae ATCC 6305) [µg/mL] | MIC E. faecalis 583 (E. faecalis 583) [µg/mL] | MIC E. faecalis 9 (E. faecalis 9) [µg/mL] | MIC E. faecium 2 (E. faecium 2) [µg/mL] | MIC E. faecium 3576 (E. faecium 3576) [µg/mL] | MIC E. gallinarum ВП 4147 (E. gallinarum BΠ 4147) [µg/mL] | MIC S.aureus 3797 (S. aureus 3797) [µg/mL] | MIC S.aureus 3798 (S.aureus 3798) [µg/mL] | also measured
Eremomycin N-(2-((2-fluorobenzyl)amino)ethyl)amide [4e] | 0.125 | 0.25 | 0.03 to 0.06 | 0.125 | 0.125 | 0.01 | 0.25 to 0.5 | 0.03 to 0.06 | 0.5 | 0.5 to 1 | 0.5 | 0.5 | 1 | Survival ([2]; dose 0.25 mg/kg, single IV): 30%; Survival ([2]; dose 0.5 mg/kg, single IV): 50%; Survival ([2]; dose 1 mg/kg, single IV): 60%; Survival ([2]; dose 1.5 mg/kg, single IV): 80%; Survival ([2]; dose 2.5 mg/kg, single IV): 100%; ED50 [2]: 0.55 mg/kg; ED50 ratio: times more active than eremomycin [2, 5]: 3.3 times; ED50 ratio: times more effective than vancomycin [2, 5]: 7.5 times; outcome after the highest dose ([3]; 200 mg/kg, single IV, mice): died immediately; delayed death of animals ([3]; 130–200 mg/kg, single IV, mice, observed 30 days): No delayed death; therapeutic index (TI = LD50/ED50) [3]: 318; LD50 ([3]; mice, single IV injection in 5% glucose, 5 mg/mL, n = 6 per group, Litchfield and Wilcoxon, mean (deviation for p ≤ 0.05)): 175.5 (161.7 ÷ 189.8) * mg/kg; MTD (LD10) ([3]; mice, single IV injection, n = 6 per group, Litchfield and Wilcoxon): 144.7 mg/kg
CN[C@H](CC(C)C)C(=O)N[C@H]1C(=O)N[C@@H](CC(N)=O)C(=O)N[C@H]2C(=O)N[C@H]3C(=O)N[C@H](C(=O)N[C@H](C(=O)O)c4cc(O)cc(O)c4-c4cc3ccc4O)[C@H](O)c3ccc(c(Cl)c3)Oc3cc2cc(c3O[C@@H]2O[C@H](CO)[C@@H](O)[C@H](O)[C@H]2O[C@H]2C[C@](C)(N)[C@H](O)[C@H](C)O2)Oc2ccc(cc2Cl)[C@H]1O [Vancomycin, vancomycin, reference compound] | 2 (≈ 1.38 µM) | 4 (≈ 2.76 µM) | 1 (≈ 0.69 µM) | 2 (≈ 1.38 µM) | 0.25 to 0.5 |  | 32 (≈ 22.1 µM) | 8 (≈ 5.52 µM) | 8 (≈ 5.52 µM) | > 32 | 8 (≈ 5.52 µM) | 8 (≈ 5.52 µM) | 8 (≈ 5.52 µM) | Survival ([2]; dose 2.5 mg/kg, single IV): 20%; Survival ([2]; dose 3.5 mg/kg, single IV): 40%; Survival ([2]; dose 4.5 mg/kg, single IV): 50%; Survival ([2]; dose 5.5 mg/kg, single IV): 80%; Survival ([2]; dose 6.5 mg/kg, single IV): 90%; Survival ([2]; dose 7.5 mg/kg, single IV): 100%; ED50 [2]: 4.1 mg/kg; therapeutic index (TI = LD50/ED50) [3]: 128; LD50 [4]: 525 mg/kg
Eremomycin N-(2-((2,3,4,5,6-pentafluorobenzyl)amino)ethyl)amide [4p] | 1 | 1 | 0.25 | 0.25 to 0.5 | 0.25 | 0.01 | 1 | 0.25 | 1 | 4 | 2 | 1 to 2 | 4 | 
Eremomycin N-(2-((2,6-difluorobenzyl)amino)ethyl)amide [4j] | 0.25 | 0.25 to 0.5 | 0.06 | 0.125 | 0.03 to 0.06 | 0.03 | 0.5 | 0.03 | 0.5 to 1 | 1 | 1 | 0.5 | 1 | 
Eremomycin N-(2-((4-methoxybenzyl)amino)ethyl)amide [4d] | 0.5 | 0.25 | 0.06 | 0.25 | 0.03 | 0.01 | 0.5 | 0.03 | 0.5 | 0.5 to 1 | 1 | 0.5 | 0.5 to 1 | 
Eremomycin N-(2-((2-chloro-4-fluorobenzyl)amino)ethyl)amide [4l] | 1 | 0.25 | 0.25 | 0.125 | 0.125 | 0.03 to 0.06 | 1 | 0.25 | 1 | 2 | 1 | 2 | 1 | 
Eremomycin N-(2-((2-fluorobenzyl)amino)propyl)amide [4f] | 0.25 to 0.5 | 0.25 | 0.03 | 0.25 to 0.5 | 0.125 | 0.03 | 1 | 0.06 | 1 | 1 | 0.5 | 0.5 | 2 | 
